pIC50: −log10 of the molar value.
Assay: Inhibition of NRAS G12D mutant (unknown origin) expressed in human THP-1 cells assessed as reduction in ERK phosphorylation incubated for 2 hrs by AlphaLISA SureFire Ultra assay
Assay type: cell-based
Conditions: THP-1, 2 h

pIC50: 9.10
SMILES: C[C@@H]1OC2=NC(c3cc(N)cc(F)c3OC(F)(F)F)=C(F)C3C(Cl)=C(CCN(C)C)N=C(C23)N2C[C@H]3CC[C@H](N3)[C@@H]12 (stereo partly specified)
